ChEMBL document CHEMBL1949624, “Synthesis of a spin-labeled anti-estrogen as a dynamic motion probe for the estrogen receptor ligand binding domain” (Bioorg Med Chem Lett, 2012)

How the values were obtained:
[1] = biological target: Estrogen receptor beta (Homo sapiens) (UniProt Q92731); test: Relative binding affinity to ERbeta LBD by competitive binding assay
[2] = Selectivity ratio of relative binding affinity for ERbeta receptor LBD to relative binding affinity for ERalpha receptor LBD
[3] = biological target: T1, Estrogen receptor (Homo sapiens) (UniProt P03372); test: Relative binding affinity to ERalpha LBD by competitive binding assay
T1 sequence (whole entry): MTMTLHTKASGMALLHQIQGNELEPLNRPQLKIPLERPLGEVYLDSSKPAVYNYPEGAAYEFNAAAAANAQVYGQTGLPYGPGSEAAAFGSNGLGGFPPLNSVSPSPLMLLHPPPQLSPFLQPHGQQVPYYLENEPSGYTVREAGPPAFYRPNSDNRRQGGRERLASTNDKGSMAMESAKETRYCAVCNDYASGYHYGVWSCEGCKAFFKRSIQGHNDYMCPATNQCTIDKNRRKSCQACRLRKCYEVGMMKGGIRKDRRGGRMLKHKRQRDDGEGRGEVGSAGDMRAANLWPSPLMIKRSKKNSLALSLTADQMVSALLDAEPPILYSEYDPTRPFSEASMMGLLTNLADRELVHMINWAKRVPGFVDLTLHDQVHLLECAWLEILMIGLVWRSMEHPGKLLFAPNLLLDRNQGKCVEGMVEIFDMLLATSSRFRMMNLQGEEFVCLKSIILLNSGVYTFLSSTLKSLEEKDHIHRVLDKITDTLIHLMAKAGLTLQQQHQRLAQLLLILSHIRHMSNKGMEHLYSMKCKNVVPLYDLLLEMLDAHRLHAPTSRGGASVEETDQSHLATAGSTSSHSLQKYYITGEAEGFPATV

Estrogen receptor beta (Homo sapiens), sequence (Q92731 whole entry, the tested form may be a part): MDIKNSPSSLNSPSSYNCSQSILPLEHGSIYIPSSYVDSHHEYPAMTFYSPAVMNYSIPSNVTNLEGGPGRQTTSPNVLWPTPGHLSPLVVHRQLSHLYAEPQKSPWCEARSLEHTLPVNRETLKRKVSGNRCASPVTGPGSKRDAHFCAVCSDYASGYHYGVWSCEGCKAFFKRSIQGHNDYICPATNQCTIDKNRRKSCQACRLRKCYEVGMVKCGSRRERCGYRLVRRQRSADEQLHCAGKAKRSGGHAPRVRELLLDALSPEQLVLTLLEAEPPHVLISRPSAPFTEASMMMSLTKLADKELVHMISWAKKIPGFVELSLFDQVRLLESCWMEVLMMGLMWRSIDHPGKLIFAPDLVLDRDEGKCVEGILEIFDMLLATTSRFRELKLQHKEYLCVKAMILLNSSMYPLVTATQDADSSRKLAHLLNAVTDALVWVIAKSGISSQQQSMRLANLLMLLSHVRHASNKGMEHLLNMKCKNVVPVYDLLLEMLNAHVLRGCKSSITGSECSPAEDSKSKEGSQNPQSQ

An RBA [1] of 33.7% and a Selectivity ratio [2] of 0.86 were found for `C[C@]12C[C@H](c3ccc(OCCN=[N+]=[N-])cc3)[C@@H]3c4ccc(O)cc4CC[C@H]3[C@@H]1CC[C@@H]2O` in this work.
An RBA [1] of 1.9%, an RBA [3] of 4.5% and a Selectivity ratio [2] of 0.43 were found for `CC1(C)CC(NCc2cn(CCOc3ccc([C@H]4C[C@]5(C)[C@@H](O)CC[C@H]5[C@@H]5CCc6cc(O)ccc6[C@H]54)cc3)nn2)CC(C)(C)N1[O]` in this work.
